What was measured:
[1] = molecular target: T1, heparin-induced synthetic recombinant tau fibrils (tau-441 human) (Homo sapiens, UniProt P10636); experiment: Fluorescence quenching assay of compound binding to heparin-induced synthetic recombinant tau fibrils; details: read-out: Kd of compound binding to heparin-induced synthetic tau fibrils determined by fluorimetry
T1 construct: purchased Eurogentec
Protocol: All compounds were assessed for their ability to bind to synthetic recombinant tau fibrils using a fluorescence quenching assay[20] […] Binding affinities for some compounds (141, 164, 166, 169, 171, and 207) could not be assessed with this assay because of negligible changes in fluorescence intensity. […] This compound was then selected for further characterization and development.
All reagents and solvents were used as supplied or purified using standard procedures as necessary. Analytical separation was conducted on an Ultimate 3000 HPLC system (Thermo Scientific). [^11C]CO2 was produced via the ^14N(p,α) nuclear reaction using GE PETtrace cyclotron applying 16.5 MeV protons onto 0.5% oxygen in nitrogen gas. [^11C]Methyl iodide was synthesized on a GE Medical Systems MeI MicroLab. A F-4500 FL spectrophotometer (Chemical Engineering department, University of Cambridge) was used to do fluorescence scan of all of the compounds mixed with tau fibrils. Excitation wavelength was 365 nm, and emission was scanned from 400 to 600 nm. With parameters, setting excitation slit was 5.0 nm, emission slit was 20.0 nm, PMT voltage was 950 V, and response was 0.5 s.
Monomeric tau (tau-441 human) lyophilized powder was obtained from Eurogentec. Tau monomers (100 μM) were prepared in 20 mM BES buffer (pH 7.4 with 25 mM NaCl and 2 mM dithiothreitol and incubated at 56 °C for 10 min. After being cooled to room temperature in a water bath, heparin (25 μM) and a protease inhibitor mix were added and incubated at 37 °C for 10 days. […]
Binding affinity of all compounds with tau fibrils […]
All other compounds binding affinit ies towards tau fibrils
were then tested by fluorescent binding assay. […]

tau fibrils = molecular target: T2, tau fibrils (Homo sapiens, UniProt P10636); experiment: Microscale thermophoresis screen for interaction with tau fibrils; format: binding; details: 1 µM and 1 nM compound mixed with 100 nM tau fibrils
T2 construct: purchased Eurogentec
Protocol: buffer) for 1 h at room temperature. Following 3 washes in PBS/0.1% Triton X-100, 50 µM LM229 (diluted in 1:1 blocking buffer/ethanol) was then added for 1 h at room temperature. Nuclei were stained with DAPI (0.1mg/ml for 10 min), washed and tissues mounted in FluorSaveTM prior to analysis using fluorescence […]
Binding affinity of all compounds with tau fibrils
Microscale Thermophoresis was first used to screen whether there were interaction between the compounds and tau fibrils. For this procedure 200 µL, 5 µM tau fibrils were mixed with 200 µL, 10 µM NT647-NHS dye and then incubated in dark for 30 minutes. Further dialysis (18 hours, changing the buffer after the first 4 hours) was used to remove the free dye giving a 2.5 µM solution of label led protein. The label ling ratio of dye unit per tau monomer was then tested by a method recommended by the instrument manufacturer, NanoTemper Technologies, which is based on a cal ibration curve. The 2.5 µM tau fibril solution was then aliquoted prior to use. The unused samples were frozen at -20 °C. MST measurements were conducted using Monolith NT.115 instrument (NanoTemper Technologies, Germany) at 25 °C. Assays were conducted at 40 % MST Power and 90 % IR-laser power. With each compound, two concentrations (1µM and 1nM) were used to mix with 100nM tau fibrils and then loaded to the MST instrument to read out the MST data curve. Only three compounds 166, 164 […]
All other compounds binding affinit ies towards tau fibrils were then tested by fluorescent binding assay.
Binding to cultured neurons from P301S tau transgenic mice
DRG were incubated with the indicated concentrations of LM229 or PBB3 for 20 minutes at room temperature, washed 3 times in PBS, and imaged on a Leica DMI 4000B microscope using a Leica DFC3000 G camera and the Leica application suite 4.0.0.11706. Fluorescence intensity was measured in 10-16 neurons each from 3 independent cultures using Image J (imagej.nih.gov/ij/). Results shown are mean ± SD. Non linear least squares curve fitting was applied using http://faculty.gvsu.edu/carlsont/232lab/nonlin2.html. […]

T1 sequence (P10636 1-441 isoform P10636-8): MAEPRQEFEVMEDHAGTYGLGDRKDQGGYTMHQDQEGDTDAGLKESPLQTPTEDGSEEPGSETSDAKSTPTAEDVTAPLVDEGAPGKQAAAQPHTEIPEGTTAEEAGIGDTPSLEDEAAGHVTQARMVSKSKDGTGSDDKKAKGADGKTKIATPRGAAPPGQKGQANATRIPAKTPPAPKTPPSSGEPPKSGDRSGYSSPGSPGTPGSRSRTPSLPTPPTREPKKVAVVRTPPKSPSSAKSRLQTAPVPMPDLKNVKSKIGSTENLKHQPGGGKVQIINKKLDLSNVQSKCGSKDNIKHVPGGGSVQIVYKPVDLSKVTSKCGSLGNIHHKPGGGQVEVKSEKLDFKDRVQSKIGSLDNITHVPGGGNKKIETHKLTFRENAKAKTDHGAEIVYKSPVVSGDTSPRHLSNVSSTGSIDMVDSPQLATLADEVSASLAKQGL
T2 sequence (P10636 1-441 isoform P10636-8): as above

| Structure (SMILES) | Kd [1] [nM] | Change of the MST data curve (tau fibrils) |
| --- | --- | --- |
| Fc1ccc(/C=C/C=C/c2nc3ccccc3s2)cn1 [compound 169] | – | no changes |
| CNc1ccc(/C=C/C=C/c2nc3cc(F)c(OC)cc3s2)cn1 [compound 225] | 1.1 | – |
| CNc1ccc(/C=C/C=C/c2nc3cc(OCCF)ccc3s2)cn1 [compound 236] | 454 | – |

Further lines, results first:

| Kd [1] [nM] | Change of the MST data curve (tau fibrils) | Structure (SMILES) |
| --- | --- | --- |
| 353 | – | Oc1ccc2nc(/C=C/C=C/c3ccc(F)cn3)sc2c1 [compound 152] |
| – | no changes | Fc1ccc(/C=C/C=C/c2nc3ccccc3s2)nc1 [compound 164] |
| – | no changes | Oc1ccc2sc(/C=C/C=C/c3ccc(F)cn3)nc2c1 [compound 166] |

Source: publication PMC8176454, “Synthesis and Assessment of Novel Probes for Imaging Tau Pathology in Transgenic Mouse and Rat Models” (ACS Chemical Neuroscience, 2021)
